Laboratory results taken from ChEMBL document CHEMBL5034034 (J Med Chem, 2021).
Activity calls are given as the source filed them. The rule behind the calls is not given here.

Columns and labels:
[1] = Tmax in Wistar Han rat at 5 mg/kg, id measured upto 24 hrs by LC-MS/MS analysis; assay type: ADME, organism-based; conditions: in vivo
[2] = AUC(0 to infinity) in Wistar Han rat at 5 mg/kg, id measured upto 24 hrs by LC-MS/MS analysis; assay type: ADME, organism-based; design: dose 5 mg/kg, time <=24; conditions: in vivo
Mast cell = assay: Induction of rat mast cells degranulation activity at 100 uM incubated for 30 mins; assay type: functional, tissue-based
[3] = Cmax in Wistar Han rat at 5 mg/kg, id measured upto 24 hrs by LC-MS/MS analysis; assay type: ADME, organism-based; design: dose 5 mg/kg, time <=24; conditions: in vivo
[4] = AUC extrapolated in Wistar Han rat at 5 mg/kg, id measured upto 24 hrs by LC-MS/MS analysis; assay type: ADME, organism-based; conditions: in vivo, other
[5] = target: T1, Proprotein convertase subtilisin/kexin type 9 (Homo sapiens, UniProt Q8NBP7); assay: Inhibition of human PCSK9 using Alexa Fluor […] as substrate incubated for 2 hrs by FRET ultra assay
T1 sequence (Q8NBP7 31-152 limits assumed): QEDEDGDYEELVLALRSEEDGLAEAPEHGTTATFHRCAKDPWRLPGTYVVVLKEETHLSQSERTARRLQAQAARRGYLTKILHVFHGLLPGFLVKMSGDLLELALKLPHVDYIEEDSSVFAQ
T1 sequence (Q8NBP7 153-692 limits assumed): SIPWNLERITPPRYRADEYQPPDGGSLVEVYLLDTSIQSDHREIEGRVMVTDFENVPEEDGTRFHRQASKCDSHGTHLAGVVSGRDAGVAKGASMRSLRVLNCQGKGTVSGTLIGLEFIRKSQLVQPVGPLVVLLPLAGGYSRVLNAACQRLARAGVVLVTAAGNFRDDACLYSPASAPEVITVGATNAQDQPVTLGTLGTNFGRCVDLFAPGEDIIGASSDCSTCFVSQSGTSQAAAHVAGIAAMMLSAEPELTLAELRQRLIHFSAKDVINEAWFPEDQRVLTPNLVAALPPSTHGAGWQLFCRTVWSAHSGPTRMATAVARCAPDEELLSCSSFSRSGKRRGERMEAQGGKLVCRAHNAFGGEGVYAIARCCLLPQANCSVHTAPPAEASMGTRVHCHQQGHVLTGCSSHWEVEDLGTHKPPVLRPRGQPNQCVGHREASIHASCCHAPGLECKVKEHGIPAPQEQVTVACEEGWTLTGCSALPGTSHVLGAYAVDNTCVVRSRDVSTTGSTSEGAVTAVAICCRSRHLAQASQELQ

[6] = Bioavailability in Wistar Han rat at 5 mg/kg, id measured upto 24 hrs by LC-MS/MS analysis; assay type: ADME, organism-based; conditions: in vivo
[7] = target: T1, Proprotein convertase subtilisin/kexin type 9; assay: Inhibition of human PCSK9 using Alexa Fluor […] as substrate incubated for 2 hrs by FRET assay
[8] = target: T2, Solute carrier organic anion transporter family member 1B1 (Homo sapiens, UniProt Q9Y6L6); assay: Inhibition of OATP1B1 (unknown origin) expressed in HEK293 cells assessed as reduction in OATP 1B1-mediated [3H]-pitavastatin uptake preincubated for 30 mins followed by [3H]-pitavastatin addition and measured after 2 mins by liquid scintillation analysis; assay type: cell-based
T2 sequence (Q9Y6L6 whole entry): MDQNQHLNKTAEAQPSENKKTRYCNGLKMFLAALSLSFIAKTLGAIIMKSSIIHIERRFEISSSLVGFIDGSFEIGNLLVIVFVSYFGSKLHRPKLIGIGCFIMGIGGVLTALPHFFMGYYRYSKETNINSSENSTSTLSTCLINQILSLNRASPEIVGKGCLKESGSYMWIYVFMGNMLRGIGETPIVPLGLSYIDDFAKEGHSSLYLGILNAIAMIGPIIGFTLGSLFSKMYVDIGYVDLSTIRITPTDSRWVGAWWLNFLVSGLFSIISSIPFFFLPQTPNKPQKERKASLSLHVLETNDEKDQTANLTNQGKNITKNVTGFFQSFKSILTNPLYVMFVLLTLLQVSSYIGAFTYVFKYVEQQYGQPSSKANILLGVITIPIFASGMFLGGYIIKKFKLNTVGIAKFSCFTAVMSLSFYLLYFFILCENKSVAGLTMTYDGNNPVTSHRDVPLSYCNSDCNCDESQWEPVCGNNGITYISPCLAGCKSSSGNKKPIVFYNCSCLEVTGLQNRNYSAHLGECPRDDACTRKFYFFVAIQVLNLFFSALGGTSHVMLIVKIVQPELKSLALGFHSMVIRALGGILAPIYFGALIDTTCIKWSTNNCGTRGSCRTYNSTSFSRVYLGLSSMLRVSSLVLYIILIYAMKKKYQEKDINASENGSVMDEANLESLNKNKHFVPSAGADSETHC

[9] = target: T1, Proprotein convertase subtilisin/kexin type 9; assay: Inhibition of human PCSK9 using Alexa Fluor […] as substrate incubated for 2 hrs by FRET plus assay

SMILES | Activity (Mast cell) | Ki [5] | Ki [7] | Ki [9] | also measured
COc1ccc(C[C@@H]2NC(=O)[C@H]([C@@H](C)O)NC(=O)[C@@H]3[C@@H]4CCN3C(=O)[C@@H]3Cc5cn(c6ccc(F)cc56)Cc5cn(nn5)-c5cc(cc(c5)CSCCC(=O)N[C@@H](CNC(=O)CCOCCOCCN)C(=O)N[C@H](C)C(=O)N[C@@H](Cc5cccc(c5)C/C=C/CO4)C(=O)N3)CSCCNC(=O)[C@]3(C)CCCN3C2=O)cc1 | inactive | 0.00813 nM | < 0.129 nM | – | Tmax [1]: 0 h; AUC(0-inf) [2]: 0.0683 µM·h; Cmax [3]: 53.3 nM; %AUCextra [4]: 19.6%; bioavailability [6]: 1%; EC50 [8]: 6000 nM
COc1ccc(C[C@@H]2NC(=O)[C@H]([C@@H](C)OC)NC(=O)[C@@H]3[C@@H]4CCN3C(=O)[C@H](Cc3c[nH]c5ccc(F)cc35)NC(=O)[C@H](Cc3cccc(c3)C/C=C\CO4)NC(=O)[C@@H](C)NC(=O)[C@H](C)NC(=O)CCSCc3cccc(c3)CSCCNC(=O)[C@]3(C)CCCN3C2=O)cc1 | – | – | 4.83 nM | – | –
COc1ccc(C[C@@H]2NC(=O)[C@H]([C@H](C)O)NC(=O)[C@@H]3[C@@H]4CCN3C(=O)[C@@H]3Cc5cn(c6ccc(F)cc56)Cc5cn(nn5)-c5cc(cc(c5)CSCCC(=O)N[C@@H](C)C(=O)N[C@@H](CNC(=O)CCOCCOCCNC(=O)CCCC[C@@H]5SC[C@H]6NC(=O)N[C@@H]56)C(=O)N[C@@H](Cc5cccc(c5)C/C=C/CO4)C(=O)N3)CSCCNC(=O)[C@]3(C)CCCN3C2=O)cc1 | – | 0.0006 nM | < 0.129 nM | < 0.01 nM | –
COc1ccc(C[C@@H]2NC(=O)[C@H]([C@@H](C)OC)NC(=O)[C@@H]3[C@@H]4CCN3C(=O)[C@H](Cc3c[nH]c5ccc(F)cc35)NC(=O)[C@H](Cc3cccc(c3)C/C=C\CO4)NC(=O)[C@@H](CN)NC(=O)[C@H](C)NC(=O)CCSCc3cccc(c3)CSCCNC(=O)[C@]3(C)CCCN3C2=O)cc1 | – | – | 1.16 nM | 2.25 nM | –
COc1ccc(C[C@@H]2NC(=O)[C@H]([C@@H](C)O)NC(=O)[C@@H]3[C@@H]4CCN3C(=O)[C@@H]3Cc5cn(c6ccc(F)cc56)Cc5cn(nn5)-c5cc(cc(c5)CSCCC(=O)N[C@@H](CN)C(=O)N[C@H](C)C(=O)N[C@@H](Cc5cccc(c5)C/C=C\CO4)C(=O)N3)CSCCNC(=O)[C@]3(C)CCCN3C2=O)cc1 | inactive | – | – | 0.037 nM | –
COc1ccc(C[C@@H]2NC(=O)[C@H]([C@H](C)OC)NC(=O)[C@@H]3[C@@H]4CCN3C(=O)[C@H](Cc3c[nH]c5ccc(F)cc35)NC(=O)[C@H](Cc3cccc(c3)C/C=C\CO4)NC(=O)[C@H](C)NC(=O)[C@H](CN)NC(=O)CCSCc3cccc(c3)CSCCNC(=O)[C@]3(C)CCCN3C2=O)cc1 | – | – | 4.36 nM | – | –
